# Results taken from patent US9540369B2, “Use of kinase inhibitors to increase the susceptibility of gram positive bacteria to beta lactam antibiotics” (Wisconsin Alumni Research Foundation, priority 2014, dated 2017).
# Entries after “also recorded” stand apart in the source; their conditions may differ.
# Columns and labels:
# L. monocytogenes [1] = assay: Broth growth curves of L. monocytogenes with antibiotic in presence or absence of kinase inhibitor; assay type: cell-based, Listeria monocytogenes; settings: for inhibition of growth in a β-lactam synergistic dependent manner: ceftriaxone; for synergy with ceftriaxone against L. monocytogenes: AIA drugs at 10 μM
# [2] = test system: Methicillin-resistant S. aureus (strain USA300); assay: Broth growth curves of Methicillin-resistant S. aureus (USA300) with antibiotic in presence or absence of kinase inhibitor; assay type: cell-based, Staphylococcus aureus
# PrkA [3] = assay: In vitro protein phosphorylation (autophosphorylation and MBP phosphorylation), PrkA; assay type: biochemical, L. monocytogenes; settings: 1 μM, 10 μM or 100 μM inhibitor
# Description: (§1) In vitro protein phosphorylation. […] To investigate substrate-level phosphorylation, ˜10 μg of myelin basic protein (Novatein Biosciences, Woburn, Mass.) were added to the reaction mixture described above and incubated at room temperature, overnight. The reactions were terminated by adding 5X SDS loading buffer. Samples were fractionated by SDS-PAGE, fixed and dried, and analyzed by autoradiography.
# Lmo0618 = assay: In vitro protein phosphorylation (autophosphorylation and MBP phosphorylation), Lmo0618; assay type: biochemical, L. monocytogenes; settings: 1 μM, 10 μM or 100 μM inhibitor
# Description: as §1
# L. monocytogenes [4] = assay type: cell-based, Listeria monocytogenes; settings: β-lactam dependent growth inhibition
# M. smegmatis = M. smegmatis growth curves with or without meropenem; assay type: cell-based, Mycobacterium smegmatis; settings: 10 μM inhibitor
# Description: Various AIA drugs were administered at 10 μM concentration to M. smegmatis, L. monocytogenes, and S. aureus.
# MSRA = settings: β-lactam dependent growth inhibition
# zebrafish (Danio rerio) = assay: Zebrafish toxicity assay; settings: administered in their environment for five days
# Description: Human kinase inhibitors were administered to zebrafish in their environment for five days.
# PrkA [5] = assay: Kinase-Glo assay, PrkA; assay type: biochemical, L. monocytogenes
# Stk1 = assay: Kinase-Glo assay, Stk1; assay type: biochemical, S. aureus; settings: 0-40 μM inhibitor, 20 μM ATP, 10 μM MBP
# PknB = PknB (Mycobacterium tuberculosis, UniProt P9WI81)
# [6] = molecular target: PrkA (PASTA kinase of L. monocytogenes; kinase domain, GST fusion) (Listeria monocytogenes, UniProt A0A0H3GI69); assay: biochemical
# [7] = 0-40 μM inhibitor, 20 μM ATP, 10 μM MBP
smiles,measurement,setting,value
Cc1ncc(-c2ccnc(Nc3ccc(S(C)(=O)=O)cc3)n2)n1C(C)C [AZD5438],inhibition of growth in a β-lactam synergistic dependent manner,L. monocytogenes [1]; 50 μM AZD5438,capable of inhibiting L. monocytogenes growth
same,synergy with β-lactam antibiotics against S. aureus,"[2]; AZD5438, data not shown",not S. aureus
same,inhibition of PrkA autophosphorylation and substrate level (MBP) phosphorylation,PrkA [3],specifically inhibits PrkA
same,inhibition of Lmo0618 phosphorylation activity,Lmo0618,not inhibiting
same,effective dose against L. monocytogenes,L. monocytogenes [4],10 µM
CN[C@@H]1C[C@H]2O[C@@](C)([C@@H]1OC)n1c3ccccc3c3c4c(c5c6ccccc6n2c5c31)C(=O)NC4 [staurosporine],susceptibility to vancomycin or kanamycin,L. monocytogenes [1]; 10 μM staurosporine,unaffected
same,increase in susceptibility to ceftriaxone upon overexpression of prkA,"L. monocytogenes [1]; prkA^theo strain, 2 mM theophylline, 10 μM staurosporine",10 fold
same,bacterial morphology by immunofluorescence microscopy,L. monocytogenes [1]; staurosporine combined with β-lactam antibiotics,grossly disrupted bacterial morphology
same,sensitization to lysozyme,"L. monocytogenes [1]; staurosporine, data not shown",increased the sensitization
same,increase in susceptibility to ceftriaxone,"L. monocytogenes [1]; wild type, 10 μM staurosporine",100 fold
same,S. aureus susceptibility to ceftriaxone or other β-lactam or non-β-lactam antibiotics,[2]; 10 μM staurosporine,unaffected
CCn1c(-c2nonc2N)nc2c(C#CC(C)(C)O)nc(CN3CCCC3)cc21 [GW1000163A],synergy with ceftriaxone against L. monocytogenes,L. monocytogenes [1],did not exhibit such synergistic activity
same,synergistic activity with meropenem against M. smegmatis,M. smegmatis,None
CCn1c(-c2nonc2N)nc2c(C#CC(C)(C)O)nc(OC[C@@H](N)c3ccccc3)cc21 [GSK938890A],synergy with ceftriaxone against L. monocytogenes,L. monocytogenes [1],can inhibit growth in concert with ceftriaxone
same,effective dose against L. monocytogenes,L. monocytogenes [4],10 µM
same,synergistic activity with meropenem against M. smegmatis,M. smegmatis,None
CCn1c(-c2nonc2N)nc2c(C#CC(C)(C)O)nc(O[C@@H](CN)c3ccccc3)cc21.O=C(O)C(F)(F)F [GSK1007102B],synergy with ceftriaxone against L. monocytogenes,L. monocytogenes [1],can inhibit growth in concert with ceftriaxone
same,synergistic activity with meropenem against M. smegmatis,M. smegmatis,showing such a synergistic effect
same,effect on M. smegmatis growth in the absence of a β-lactam,M. smegmatis; no additional drugs,minor affect on growth; also recorded: shows inhibition in the absence of a β-lactam
CCn1c(-c2nonc2N)nc2c(C#CC(C)(C)O)nc(OCCNC)cc21 [GSK949675A],synergy with ceftriaxone against L. monocytogenes,L. monocytogenes [1],can inhibit growth in concert with ceftriaxone
same,effective dose against L. monocytogenes,L. monocytogenes [4],10 µM
same,synergistic activity with meropenem against M. smegmatis,M. smegmatis,None
same,effective dose against MSRA,MSRA,10 µM
CCn1c(-c2nonc2N)nc2c(C#CC(C)(C)O)nc(OC[C@H](N)c3ccccc3)cc21 [GSK943949A],synergy with ceftriaxone against L. monocytogenes,L. monocytogenes [1],can inhibit growth in concert with ceftriaxone
same,synergistic activity with meropenem against M. smegmatis,M. smegmatis,None
O=c1c2ccccc2[nH]c(=S)n1CCN1CCC(=C(c2ccc(F)cc2)c2ccc(F)cc2)CC1 [diacylglycerol kinase inhibitor II],toxicity in zebrafish,zebrafish (Danio rerio),highly toxic
CCn1c(-c2nonc2N)nc2c(C#CC(C)(C)O)ncc(OC[C@@H]3CCCN3)c21 [GSK614526A],synergy with ceftriaxone against L. monocytogenes,L. monocytogenes [1],can inhibit growth in concert with ceftriaxone
same,synergistic activity with meropenem against M. smegmatis,M. smegmatis,None
"CCn1c(-c2nonc2N)nc2c(C#CC(C)(C)O)ncc(OC[C@H]3CCCNC3)c21 [GSK690693, 4-(2-(4-amino-1,2,5-oxadiazol-3-yl)-1-ethyl-7-{[(3S)-3-piperidinylmethyl]oxy}-1H-imidazo[4,5-c]pyridin-4-yl)-2-methyl-3-butyn-2-ol]",synergy with ceftriaxone against L. monocytogenes,L. monocytogenes [1],can inhibit growth in concert with ceftriaxone
same,inhibition of growth in a β-lactam synergistic dependent manner,L. monocytogenes [1]; 100 μM GSK690693,inhibited L. monocytogenes growth in a β-lactam synergistic dependent manner
same,effective dose against L. monocytogenes,L. monocytogenes [4],10 µM
same,inhibition of PrkA enzymatic activity in vitro,PrkA [5]; [7],can inhibit
same,inhibition for PrkA compared to Stk1,PrkA [5]; biochemical,four-fold increase in inhibition
same,inhibition of Stk1 enzymatic activity in vitro,Stk1,can inhibit
same,synergistic activity with meropenem against M. smegmatis,M. smegmatis,exhibits synergy; also recorded: can work to inhibit growth synergistically with meropenem
same,inhibition of PknB enzymatic activity in vitro,PknB; [7],can inhibit
same,inhibition for PknB compared to Stk1,PknB; biochemical,four-fold increase in inhibition
same,IC50,[6],1200 nM
same,toxicity in zebrafish,zebrafish (Danio rerio),does not induce toxicity
